For 28 molecules, IC50 results are on record in patent US9085555B2, “Complement pathway modulators and uses thereof” (priority 2011, dated 2015).

This test addresses Factor D (Homo sapiens (Human), UniProt P00746). The test is described as follows: biochemical. The class given is biochemical. The settings on record: read-out: IC50.

pIC50: −log10 of the molar value.

Factor D, sequence (P00746 26-253): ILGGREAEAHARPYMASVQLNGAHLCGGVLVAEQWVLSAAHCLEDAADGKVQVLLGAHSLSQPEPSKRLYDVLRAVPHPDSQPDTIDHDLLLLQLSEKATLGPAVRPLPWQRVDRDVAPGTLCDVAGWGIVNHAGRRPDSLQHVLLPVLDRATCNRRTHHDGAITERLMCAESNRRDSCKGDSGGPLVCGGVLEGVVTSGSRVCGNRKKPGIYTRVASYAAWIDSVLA

Usually pIC50 stands for −log10 of the IC50, conventionally taken in molar units. In the case of `NC(=O)n1cc(NC(=O)N2CCS[C@H]2C(=O)Nc2cc(Br)cc(C(=O)O)c2)c2ccccc21` [Example 341, 3-Bromo-5-{[(S)-3-(1-carbamoyl-1H-indol-3-ylcarbamoyl)-thiazolidine-2-carbonyl]-amino}-benzoic acid], the pIC50 is 7.02.

Regarding `COc1ccc2c(c1)c(NC(=O)N1[C@@H]3C[C@@H]3C[C@H]1C(=O)Nc1cc(Br)cc(C(=O)O)c1)cn2C(N)=O` [Example 342, 3-Bromo-5-{[(1R,3S,5R)-2-(1-carbamoyl-5-methoxy-1H-indol-3-ylcarbamoyl)-2-aza-bicyclo[3.1.0]hexane-3-carbonyl]-amino}-benzoic acid], the pIC50 is 7.26.

Regarding `NC(=O)n1cc(NC(=O)N2C[C@H](F)C[C@H]2C(=O)Nc2cc(C(=O)O)cc(Br)c2F)c2ccccc21` [Example 343, 3-Bromo-5-{[(2S,4R)-1-(1-carbamoyl-1H-indol-3-ylcarbamoyl)-4-fluoro-pyrrolidine-2-carbonyl]-amino}-4-fluoro-benzoic acid], the pIC50 is 7.52.

As for `NC(=O)n1cc(NC(=O)N2[C@@H]3C[C@@H]3C[C@H]2C(=O)Nc2cc(Br)cc(-c3nnn[nH]3)c2)c2ccccc21` [Example 344, (1R,3S,5R)-2-Aza-bicyclo[3.1.0]hexane-2,3-dicarboxylic acid 3-{[3-bromo-5-(1H-tetrazol-5-yl)-phenyl]-amide}2-[(1-carbamoyl-1H-indol-3-yl)-amide]], the pIC50 is 7.17.

For the molecule `CC(C)(C)n1nnnc1-c1cc(Br)cc(NC(=O)[C@@H]2C[C@H]3C[C@H]3N2C(=O)Nc2cn(C(N)=O)c3ccccc23)c1` [Example 345, (1R,3S,5R)-2-Aza-bicyclo[3.1.0]hexane-2,3-dicarboxylic acid 3-{[3-bromo-5-(1-tert-butyl-1H-tetrazol-5-yl)-phenyl]-amide}2-[(1-carbamoyl-1H-indol-3-yl)-amide]], the pIC50 was 6.10.

With `NC(=O)n1cc(NC(=O)N2C[C@H](F)C[C@H]2C(=O)NCc2cc(-c3nnn[nH]3)cc(Cl)c2F)c2ccccc21` [Example 346, (2S,4R)-4-Fluoro-pyrrolidine-1,2-dicarboxylic acid 1-[(1-carbamoyl-1H-indol-3-yl)-amide]2-[3-chloro-2-fluoro-5-(1H-tetrazol-5-yl)-benzylamide]], the pIC50 is 7.16.

In the case of `CC(C)(C)n1nnnc1-c1cc(Cl)c(F)c(CNC(=O)[C@@H]2C[C@@H](F)CN2C(=O)Nc2cn(C(N)=O)c3ccccc23)c1` [Example 347, (2S,4R)-4-Fluoro-pyrrolidine-1,2-dicarboxylic acid 2-[5-(1-tert-butyl-1H-tetrazol-5-yl)-3-chloro-2-fluoro-benzylamide]1-[(1-carbamoyl-1H-indol-3-yl)-amide]], the pIC50 is 6.17.

For the molecule `NC(=O)n1cc(NC(=O)N2CC[C@H](F)[C@H]2C(=O)NCc2cccc(Cl)c2)c2ccccc21` [Example 348, 2R,3S)-3-Fluoro-pyrrolidine-1,2-dicarboxylic acid 1-[(1-carbamoyl-1H-indol-3-yl)-amide]2-(3-chloro-benzylamide], the pIC50 was 6.70.

Take `NC(=O)n1cc(NC(=O)N2CC[C@@H](F)[C@H]2C(=O)NCc2cccc(Cl)c2)c2ccccc21` [Example 349, 2R,3R)-3-Fluoro-pyrrolidine-1,2-dicarboxylic acid 1-[(1-carbamoyl-1H-indol-3-yl)-amide]2-(3-chloro-benzylamide]: the pIC50 is 6.82.

On to `C[C@@H]1CC[C@@H](C(=O)NCc2cccc(Cl)c2F)N1C(=O)Nc1cn(C(N)=O)c2ccccc12` [Example 350, 2S,5R)-5-Methyl-pyrrolidine-1,2-dicarboxylic acid 1-[(1-carbamoyl-1H-indol-3-yl)-amide]2-(3-chloro-2-fluoro-benzylamide], for which the pIC50 was 7.07.

In the case of `CC[C@@H]1CC[C@@H](C(=O)NCc2cccc(Cl)c2F)N1C(=O)Nc1cn(C(N)=O)c2ccccc12` [Example 351, 2S,5R)-5-Ethyl-pyrrolidine-1,2-dicarboxylic acid 1-[(1-carbamoyl-1H-indol-3-yl)-amide]2-(3-chloro-2-fluoro-benzylamide], the pIC50 was 6.22.

As for `NC(=O)n1cc(NC(=O)N2C[C@H](CO)C[C@H]2C(=O)NCc2cccc(Cl)c2F)c2ccccc21` [Example 352, 2S,4R)-4-Hydroxymethyl-pyrrolidine-1,2-dicarboxylic acid 1-[(1-carbamoyl-1H-indol-3-yl)-amide]2-(3-chloro-2-fluoro-benzylamide], the negative-log IC50 (pIC50) was 6.70.

As to `COC(=O)[C@H]1C[C@@H](C(=O)NCc2c(F)ccc(Cl)c2F)N(C(=O)Nc2cn(C(N)=O)c3ccccc23)C1` [Example 353, (3S,5S)-1-(1-carbamoyl-1H-indol-3-ylcarbamoyl)-5-(3-chloro-2,6-difluoro-benzylcarbamoyl)-pyrrolidine-3-carboxylic acid methyl ester], the pIC50 is 6.60.

Turning to `NC(=O)n1cc(NC(=O)N2C[C@@H](C(=O)O)C[C@H]2C(=O)NCc2c(F)ccc(Cl)c2F)c2ccccc21` [Example 354, (3S,5S)-1-(1-Carbamoyl-1H-indol-3-ylcarbamoyl)-5-(3-chloro-2,6-difluoro-benzylcarbamoyl)-pyrrolidine-3-carboxylic acid], the pIC50 is 5.78.

Turning to `NC(=O)n1cc(NC(=O)N2C[C@@H](CO)C[C@H]2C(=O)NCc2cccc(Br)c2F)c2ccccc21` [Example 355, (2S,4S)-4-Hydroxymethyl-pyrrolidine-1,2-dicarboxylic acid 2-(3-bromo-2-fluoro-benzylamide) 1-[(1-carbamoyl-1H-indol-3-yl)-amide]], the pIC50 is 6.98.

For the molecule `NC(=O)n1cc(NC(=O)N2C[C@](F)(CO)C[C@H]2C(=O)NCc2cccc(Cl)c2F)c2ccccc21` [Example 356, 2S,4S)-4-Fluoro-4-hydroxymethyl-pyrrolidine-1,2-dicarboxylic acid 1-[(1-carbamoyl-1H-indol-3-yl)-amide]2-(3-chloro-2-fluoro-benzylamide], the pIC50 is 6.32.

In the case of `NC(=O)n1cc(NC(=O)N2[C@H]3C[C@@]3(CO)C[C@H]2C(=O)NCc2cccc(Cl)c2F)c2ccccc21` [Example 357, 1S,3S,5R)-5-Hydroxymethyl-2-aza-bicyclo[3.1.0]hexane-2,3-dicarboxylic acid 2-[(1-carbamoyl-1H-indol-3-yl)-amide]3-(3-chloro-2-fluoro-benzylamide], the pIC50 is 6.41.

Turning to `NC(=O)n1cc(NC(=O)N2[C@H](C(=O)NCc3cccc(Cl)c3F)C[C@@]3(CO)C[C@@H]23)c2ccccc21` [Example 358, 1R,3S,5S)-5-Hydroxymethyl-2-aza-bicyclo[3.1.0]hexane-2,3-dicarboxylic acid 2-[(1-carbamoyl-1H-indol-3-yl)-amide]3-(3-chloro-2-fluoro-benzylamide], the pIC50 is 8.10.

With `NC(=O)n1cc(NC(=O)N2C[C@@H](C(F)F)C[C@H]2C(=O)NCc2cccc(Cl)c2F)c2ccccc21` [Example 359, 2S,4S)-4-Difluoromethyl-pyrrolidine-1,2-dicarboxylic acid 1-[(1-carbamoyl-1H-indol-3-yl)-amide]2-(3-chloro-2-fluoro-benzylamide], the pIC50 was 6.60.

For the molecule `NC(=O)n1cc(NC(=O)N2[C@@H](CO)CC[C@H]2C(=O)Nc2cccc(OC(F)(F)F)c2)c2ccccc21` [Example 360, (2S,5R)-5-Hydroxymethyl-pyrrolidine-1,2-dicarboxylic acid 1-[(1-carbamoyl-1H-indol-3-yl)-amide]2-[(3-trifluoromethoxy-phenyl)-amide]], the pIC50 is 6.00.

For `NC(=O)n1cc(NC(=O)N2N=CCC2C(=O)NCc2cccc(Cl)c2)c2ccccc21` (stereo not shown) [Example 361, 4,5-Dihydro-pyrazole-1,5-dicarboxylic acid 1-[(1-carbamoyl-1H-indol-3-yl)-amide]5-(3-chloro-benzylamide)], the pIC50 is 7.60.

Take `O=C(Nc1cccc(OC(F)(F)F)c1)[C@@H]1CCCN1C(=O)Nc1cn(C(=O)CO)c2ccccc12` [Example 366, (S)-Pyrrolidine-1,2-dicarboxylic acid 1-{[1-(2-hydroxy-acetyl)-1H-indol-3-yl]-amide}2-[(3-trifluoromethoxy-phenyl)-amide]]: the pIC50 was 5.49.

Take `CC(=O)n1cc(NC(=O)N2CCC[C@H]2C(=O)Nc2cccc(OC(F)(F)F)c2)c2ccc(C#N)cc21` [Example 367, (S)-Pyrrolidine-1,2-dicarboxylic acid 1-[(1-acetyl-6-cyano-1H-indol-3-yl)-amide]2-[(3-trifluoromethoxy-phenyl)-amide]]: the pIC50 was 5.10.

For the molecule `CC(=O)n1cc(NC(=O)N2C[C@H](F)C[C@H]2C(=O)NCc2cccc(Cl)c2F)c2ccc(OC(F)F)cc21` [Example 368, 2S,4R)-4-Fluoro-pyrrolidine-1,2-dicarboxylic acid 1-[(1-acetyl-6-difluoromethoxy-1H-indol-3-yl)-amide]2-(3-chloro-2-fluoro-benzylamide], the pIC50 is 7.18.

With `NC(=O)n1cc(NC(=O)N2CCC[C@H]2C(=O)Nc2cccc(OC(F)(F)F)c2)c2ccc(O)cc21` [Example 369, (S)-Pyrrolidine-1,2-dicarboxylic acid 1-[(1-carbamoyl-6-hydroxy-1H-indol-3-yl)-amide]2-[(3-trifluoromethoxy-phenyl)-amide]], the negative logarithm of the IC50 (pIC50) is 6.07.

As to `NC(=O)n1cc(NC(=O)N2CCC[C@H]2C(=O)Nc2cccc(OC(F)(F)F)c2)c2cc(O)ccc21` [Example 370, (S)-Pyrrolidine-1,2-dicarboxylic acid 1-[(1-carbamoyl-5-hydroxy-1H-indol-3-yl)-amide]2-[(3-trifluoromethoxy-phenyl)-amide]], the pIC50 is 7.02.

Regarding `NC(=O)n1cc(NC(=O)N2[C@@H]3C[C@@H]3C[C@H]2C(=O)NCc2cccc(Cl)c2F)c2cc(O)ccc21` [Example 371, (1R,3S,5R)-2-aza-bicyclo[3.1.0]hexane-2,3-dicarboxylic acid 2-[(1-carbamoyl-5-hydroxy-1H-indol-3-yl)-amide]3-(3-chloro-2-fluoro-benzylamide)], the pIC50 was 8.52.

Turning to `NC(=O)n1cc(NC(=O)N2[C@@H]3C[C@@H]3C[C@H]2C(=O)NCc2ccccc2F)c2cc(O)ccc21` [Example 372, (1R,3S,5R)-2-Aza-bicyclo[3.1.0]hexane-2,3-dicarboxylic acid 2-[(1-carbamoyl-5-hydroxy-1H-indol-3-yl)-amide]3-(2-fluoro-benzylamide)], the pIC50 is 7.35.
